{"source": "patent US9708359B2", "about": "“Pyrrolopyrimidine nucleosides and analogs thereof” (Chimerix, Inc., priority 2015, dated 2017)", "note": "Where “and” joins values, the source holds several entries; their conditions need not be identical. Equal entries are not always repeated."}
{"test_system": "mouse norovirus", "assay": "Mouse Norovirus (MNV) assay in RAW cells", "details": "murine norovirus, Table 7", "units": {"EC50": "µM"}}
{"smiles": "Cc1nc(N)c2c(C(N)=O)cn([C@@H]3O[C@H](COC(=O)[C@@H](N)C(C)C)[C@@H](O)[C@H]3O)c2n1", "note": "[Compound 2]", "EC50": "1.9 to 4.15"}
{"smiles": "Cc1nc(N)c2c(C(N)=O)cn([C@@H]3O[C@H](COC(=O)[C@H](C)N)[C@@H](O)[C@H]3O)c2n1", "note": "[Compound 3]", "EC50": 2}
{"smiles": "CCCCCCCCCCCCCCCCOCCC(=O)OC[C@H]1O[C@@H](n2cc(C(N)=O)c3c(N)nc(C)nc32)[C@H](O)[C@@H]1O", "note": "[Compound 4]", "EC50": 3.5}
{"smiles": "Cc1nc(N)c2c(C(N)=O)cn([C@@H]3O[C@H](COC(=O)[C@@H](N)Cc4ccccc4)[C@@H](O)[C@H]3O)c2n1", "note": "[Compound 5]", "EC50": 2.2}
{"smiles": "[2H][C@@]1(n2cc(C(N)=O)c3c(N)nc(C)nc32)O[C@H](CO)[C@@H](O)[C@H]1O", "note": "[Compound 6]", "EC50": 3.08}
{"test_system": "mouse norovirus", "assay": "Mouse Norovirus (MNV) assay in RAW cells", "details": "murine norovirus, Table 8; N/A = assayed but no EC50 value could be measured"}
{"smiles": "Cc1nc(O)c2c(C(N)=O)cn([C@@H]3O[C@H](CO)[C@@H](O)[C@H]3O)c2n1", "note": "[Compound 7]", "EC50": "53.8 µM and 38.4 µM"}
{"smiles": "Cc1nc(N)c2c(C(N)=O)cn([C@@H]3O[C@H](CO)[C@@H](O)[C@H]3O)c2[n+]1[O-]", "note": "[Compound 8]", "EC50": "23.6 µM"}
{"smiles": "Cc1nc(N)c2c(C(N)=O)cn([C@@H]3O[C@H](CO)[C@@H](O)[C@@H]3O)c2n1", "note": "[Compound 9]", "EC50": "50 µM"}
{"smiles": "Cc1nc(N)c2c(-c3nn[nH]n3)cn([C@@H]3O[C@H](CO)[C@@H](O)[C@H]3O)c2n1", "note": "[Compound 10]", "EC50": "61.5 µM"}
{"smiles": "Cc1nc(N)c2c(C#N)cn([C@@H]3O[C@H](CO)[C@@H](O)[C@H]3O)c2n1", "note": "[Compound 11]", "EC50": "> 121 µM"}
{"smiles": "CCc1nc(N)c2c(C(N)=O)cn([C@@H]3O[C@H](CO)[C@@H](O)[C@H]3O)c2n1", "note": "[Compound 13]", "EC50": "> 200 µM"}
{"smiles": "Cc1nc(N)c2c(I)cn([C@@H]3O[C@H](CO)[C@@H](O)[C@H]3O)c2n1", "note": "[Compound 14]", "EC50": "> 100 µM"}
{"smiles": "NC(=O)c1cn([C@@H]2O[C@H](CO)[C@@H](O)[C@H]2O)c2nc(-c3ccccc3)nc(N)c12", "note": "[Compound 15]", "EC50": "> 100 µM"}
{"smiles": "NC(=S)c1cn([C@@H]2O[C@H](CO)[C@@H](O)[C@H]2O)c2nc(-c3ccccc3)nc(N)c12", "note": "[Compound 16]", "EC50": "> 100 µM"}
{"smiles": "N#Cc1cn([C@@H]2O[C@H](CO)[C@@H](O)[C@H]2O)c2nc(-c3ccccc3)nc(N)c12", "note": "[Compound 17]", "EC50": "> 100 µM"}
{"smiles": "Cc1nc(N)c2c(C(N)=O)cn([C@@H]3O[C@H](COCc4ccccc4)[C@@H](O)[C@H]3O)c2n1", "note": "[Compound 19]", "EC50": "> 100 µM"}
{"smiles": "Cc1nc(N)c2c(C(N)=O)cn([C@@H]3O[C@H](CO)[C@H]4OC(C)(C)O[C@H]43)c2n1", "note": "[Compound 20]", "EC50": "> 20 µM"}
{"smiles": "CCOP(=O)(COC[C@H]1O[C@@H](n2cc(C(N)=O)c3c(N)nc(C)nc32)[C@@H]2OC(C)(C)O[C@@H]21)OCC", "note": "[Compound 21]", "EC50": "> 100 µM"}
{"smiles": "CCCCCCCCCCCCCCCOCCCOP(=O)(O)COC[C@H]1O[C@@H](n2cc(C(N)=O)c3c(N)nc(C)nc32)[C@@H]2OC(C)(C)O[C@@H]21", "note": "[Compound 22]", "EC50": "> 100 µM"}
{"smiles": "Cc1nc(N)c2c(C(N)=O)cn([C@@H]3O[C@H](COCP(=O)(O)O)[C@@H](O)[C@H]3O)c2n1", "note": "[Compound 23]", "EC50": "> 100 µM"}
{"smiles": "CCCCCCCCCCCCCCCCOCCCOP(=O)(O)COC[C@H]1O[C@@H](n2cc(C(N)=O)c3c(N)nc(C)nc32)[C@H](O)[C@@H]1O", "note": "[Compound 24]", "EC50": "> 20 µM"}
{"smiles": "CCOP(=O)(COC[C@H]1O[C@@H](n2cc(C(N)=O)c3c(N)nc(C)nc32)[C@H](O)[C@@H]1O)OCC", "note": "[Compound 25]", "EC50": "> 100 µM"}
{"smiles": "NC(=O)c1cn([C@@H]2O[C@H](CO)[C@@H](O)[C@H]2O)c2nc(C(F)(F)F)nc(N)c12", "note": "[Compound 26]", "EC50": "> 100 µM"}
{"smiles": "Cc1nc(Cl)c2c(C#N)cn([C@@H]3O[C@H](CO)[C@@H](O)[C@H]3O)c2n1", "note": "[Compound 29]", "EC50": "> 100 µM"}
{"smiles": "COc1nc(C)nc2c1c(C#N)cn2[C@@H]1O[C@H](CO)[C@@H](O)[C@H]1O", "note": "[Compound 30]", "EC50": "> 100 µM"}
{"smiles": "Cc1nc(O)c2c(C#N)cn([C@@H]3O[C@H](CO)[C@@H](O)[C@H]3O)c2n1", "note": "[Compound 31]", "EC50": "> 100 µM"}
{"smiles": "Cc1nc(N)c2c(C(N)=O)c[nH]c2n1", "note": "[Compound 32]", "EC50": "> 100 µM"}
{"smiles": "Cc1nc(N)c2c(C(=O)O)cn([C@@H]3O[C@H](COCc4ccccc4)[C@@H](O)[C@H]3O)c2n1", "note": "[Compound 33]", "EC50": "> 100 µM"}
{"smiles": "Cc1ncc2c(C(=O)O)cn([C@@H]3O[C@H](CO)[C@@H](O)[C@H]3O)c2n1", "note": "[Compound 34]", "EC50": "> 100 µM"}
{"smiles": "Cc1ncc2c(C(N)=O)cn([C@@H]3O[C@H](CO)[C@@H](O)[C@H]3O)c2n1", "note": "[Compound 35]", "EC50": "> 100 µM"}
{"smiles": "CNc1nc(C)nc2c1c(C(N)=O)cn2[C@@H]1O[C@H](CO)[C@@H](O)[C@H]1O", "note": "[Compound 36]", "EC50": "> 100 µM"}
{"smiles": "Cc1nc(N(C)C)c2c(C(N)=O)cn([C@@H]3O[C@H](CO)[C@@H](O)[C@H]3O)c2n1", "note": "[Compound 37]", "EC50": "> 100 µM"}
{"smiles": "Cc1nc(N)c2c(C(N)=O)cn([C@@H]3O[C@H](CO)[C@@H](O)[C@H]3O)c2n1", "note": "[Compound 38]", "EC50": "> 100 µM"}
{"smiles": "CNC(=O)c1cn([C@@H]2O[C@H](CO)[C@@H](O)[C@H]2O)c2nc(C)nc(N)c12", "note": "[Compound 39]", "EC50": "> 100 µM"}
{"smiles": "Cc1nc(N)c2c(C(N)=O)cn([C@@H]3O[C@H](CO)[C@@H](O)C3(F)F)c2n1", "note": "[Compound 40]", "EC50": "> 100 µM"}
{"smiles": "Cc1nc(N)c2c(C(=O)N(C)C)cn([C@@H]3O[C@H](CO)[C@@H](O)[C@H]3O)c2n1", "note": "[Compound 41]", "EC50": "> 100 µM"}
{"smiles": "COc1nc(C)nc2c1c(I)cn2[C@@H]1O[C@H](CO)[C@@H](O)[C@H]1O", "note": "[Compound 42]", "EC50": "> 100 µM"}
{"smiles": "CSc1nc(C)nc2c1c(I)cn2[C@@H]1O[C@H](CO)[C@@H](O)[C@H]1O", "note": "[Compound 43]", "EC50": "> 100 µM"}
{"smiles": "Cc1nc(N)c2c(C(N)=O)c(Br)n([C@@H]3O[C@H](CO)[C@@H](O)[C@H]3O)c2n1", "note": "[Compound 44]", "EC50": "> 100 µM"}
{"smiles": "COC(=O)c1c[nH]c2nc(C)nc(Cl)c12", "note": "[Compound 45]", "EC50": "> 100 µM"}
{"smiles": "Cc1nc(N)c2cc[nH]c2n1", "note": "[Compound 46]", "EC50": "> 100 µM"}
{"smiles": "COc1nc(C)nc2c1c(CN)cn2[C@@H]1O[C@H](CO)[C@@H](O)[C@H]1O", "note": "[Compound 47]", "EC50": "> 100 µM"}
{"smiles": "Cc1nc(N)c2ccn([C@@H]3O[C@H](CO)[C@@H](O)[C@H]3O)c2n1", "note": "[Compound 48]", "EC50": "> 100 µM"}
{"smiles": "Cc1nc(N)c2c(C(N)=O)cn(C[C@H](O)CO)c2n1", "note": "[Compound 50]", "EC50": "> 100 µM"}
{"smiles": "Cc1nc(N)c2c(C(N)=O)cn(C[C@H](C)O)c2n1", "note": "[Compound 51]", "EC50": "> 100 µM"}
{"smiles": "Cc1nc(N)c2c(C(N)=O)cn(C[C@@H](CO)OCP(=O)(O)O)c2n1", "note": "[Compound 52]", "EC50": "> 100 µM"}
{"smiles": "CCOP(=O)(CO[C@H](CO)Cn1cc(C(N)=O)c2c(N)nc(C)nc21)OCC", "note": "[Compound 53]", "EC50": "> 100 µM"}
{"smiles": "Cc1nc(N)c2ccn(C[C@H](C)O)c2n1", "note": "[Compound 54]", "EC50": "> 100 µM"}
{"smiles": "CCCCCCCCCCCCCCCCOCCCOP(=O)(O)CO[C@H](CO)Cn1cc(C(N)=O)c2c(N)nc(C)nc21", "note": "[Compound 56]", "EC50": "75.3 µM"}
{"smiles": "Cc1nc(N)c2c(C(N)=O)cn([C@@H]3O[C@H](CO)[C@@H](O)[C@H]3N=[N+]=[N-])c2n1", "note": "[Compound 57]", "EC50": "> 100 µM"}
{"smiles": "CCOP(=O)(CO[C@H](C)Cn1cc(C(N)=O)c2c(N)nc(C)nc21)OCC", "note": "[Compound 58]", "EC50": "> 100 µM"}
{"smiles": "Cc1nc(N)c2c(C(N)=O)cn(C[C@@H](C)OCP(=O)(O)O)c2n1", "note": "[Compound 59]", "EC50": "> 100 µM"}
{"smiles": "COc1nc(C)nc2c1c(C(N)=O)cn2[C@@H]1O[C@H](COC(=O)[C@@H](NC(=O)OC(C)(C)C)C(C)C)[C@@H](O)[C@@]1(C)O", "note": "[Compound 61]", "EC50": "> 100 µM"}
{"test_system": "mouse norovirus", "assay": "Mouse Norovirus (MNV) assay in RAW cells", "details": "murine norovirus, Table 8; N/A = assayed but no EC50 value could be measured; listed as compound 7", "units": {"EC50": "µM"}}
{"smiles": "Cc1nc(O)c2c(C(N)=O)cn([C@@H]3O[C@H](CO)[C@@H](O)[C@H]3O)c2n1", "note": "[Compound 7]", "EC50": "> 38"}
